From patent US4650874A, “N-(aralkoxybenzyl)-4(benzhydryl) piperidines” (G. D. Searle & Co., priority 1984, dated 1987) come the findings set out here.

The test system of test [1] is spontaneously hypertensive rats. The test is described as follows: Anti-hypertensive activity in the unanesthetized spontaneously hypertensive rat (SHR) assay. The class given is in vivo. The following applies: for minimal effective dose: Rattus norvegicus, read-out: Threshold Dose mg/kg intravenous; for minimal effective dose / Threshold Dose mg/kg intravenous: intravenous; for Oral Activity (Blood Pressure Lowering): intragastrically 50 mg/kg. The method, then:
Male, unanesthetized spontaneously hypertensive rats, 11 to 16 weeks old were used in this test procedure. The compounds to be tested were administered intragastrically at a dose of 50 mg/kg or intraarterially/intravenously at a dose of 10 mg/kg.
Initial mean arterial blood pressure was measured directly via a previously implanted arterial catheter immediately before administration of the test compound. Blood pressure readings were made at 1, 2, 3, and 4 hours following administration of the test compound. […] Statistical comparisons were made using the paired Student's T test with two sided probability calculations.

For test [2], the target named is T1, vascular smooth muscle (isolated thoracic aorta segments) (Rattus norvegicus, UniProt P22002).
T1 construct: The excised aorta segment was mounted in a tissue bath containing modified Krebs solution; from tissue; host or cells: thoracic aorta segments of male spontaneously hypertensive rats
T1 sequence (P22002 whole entry): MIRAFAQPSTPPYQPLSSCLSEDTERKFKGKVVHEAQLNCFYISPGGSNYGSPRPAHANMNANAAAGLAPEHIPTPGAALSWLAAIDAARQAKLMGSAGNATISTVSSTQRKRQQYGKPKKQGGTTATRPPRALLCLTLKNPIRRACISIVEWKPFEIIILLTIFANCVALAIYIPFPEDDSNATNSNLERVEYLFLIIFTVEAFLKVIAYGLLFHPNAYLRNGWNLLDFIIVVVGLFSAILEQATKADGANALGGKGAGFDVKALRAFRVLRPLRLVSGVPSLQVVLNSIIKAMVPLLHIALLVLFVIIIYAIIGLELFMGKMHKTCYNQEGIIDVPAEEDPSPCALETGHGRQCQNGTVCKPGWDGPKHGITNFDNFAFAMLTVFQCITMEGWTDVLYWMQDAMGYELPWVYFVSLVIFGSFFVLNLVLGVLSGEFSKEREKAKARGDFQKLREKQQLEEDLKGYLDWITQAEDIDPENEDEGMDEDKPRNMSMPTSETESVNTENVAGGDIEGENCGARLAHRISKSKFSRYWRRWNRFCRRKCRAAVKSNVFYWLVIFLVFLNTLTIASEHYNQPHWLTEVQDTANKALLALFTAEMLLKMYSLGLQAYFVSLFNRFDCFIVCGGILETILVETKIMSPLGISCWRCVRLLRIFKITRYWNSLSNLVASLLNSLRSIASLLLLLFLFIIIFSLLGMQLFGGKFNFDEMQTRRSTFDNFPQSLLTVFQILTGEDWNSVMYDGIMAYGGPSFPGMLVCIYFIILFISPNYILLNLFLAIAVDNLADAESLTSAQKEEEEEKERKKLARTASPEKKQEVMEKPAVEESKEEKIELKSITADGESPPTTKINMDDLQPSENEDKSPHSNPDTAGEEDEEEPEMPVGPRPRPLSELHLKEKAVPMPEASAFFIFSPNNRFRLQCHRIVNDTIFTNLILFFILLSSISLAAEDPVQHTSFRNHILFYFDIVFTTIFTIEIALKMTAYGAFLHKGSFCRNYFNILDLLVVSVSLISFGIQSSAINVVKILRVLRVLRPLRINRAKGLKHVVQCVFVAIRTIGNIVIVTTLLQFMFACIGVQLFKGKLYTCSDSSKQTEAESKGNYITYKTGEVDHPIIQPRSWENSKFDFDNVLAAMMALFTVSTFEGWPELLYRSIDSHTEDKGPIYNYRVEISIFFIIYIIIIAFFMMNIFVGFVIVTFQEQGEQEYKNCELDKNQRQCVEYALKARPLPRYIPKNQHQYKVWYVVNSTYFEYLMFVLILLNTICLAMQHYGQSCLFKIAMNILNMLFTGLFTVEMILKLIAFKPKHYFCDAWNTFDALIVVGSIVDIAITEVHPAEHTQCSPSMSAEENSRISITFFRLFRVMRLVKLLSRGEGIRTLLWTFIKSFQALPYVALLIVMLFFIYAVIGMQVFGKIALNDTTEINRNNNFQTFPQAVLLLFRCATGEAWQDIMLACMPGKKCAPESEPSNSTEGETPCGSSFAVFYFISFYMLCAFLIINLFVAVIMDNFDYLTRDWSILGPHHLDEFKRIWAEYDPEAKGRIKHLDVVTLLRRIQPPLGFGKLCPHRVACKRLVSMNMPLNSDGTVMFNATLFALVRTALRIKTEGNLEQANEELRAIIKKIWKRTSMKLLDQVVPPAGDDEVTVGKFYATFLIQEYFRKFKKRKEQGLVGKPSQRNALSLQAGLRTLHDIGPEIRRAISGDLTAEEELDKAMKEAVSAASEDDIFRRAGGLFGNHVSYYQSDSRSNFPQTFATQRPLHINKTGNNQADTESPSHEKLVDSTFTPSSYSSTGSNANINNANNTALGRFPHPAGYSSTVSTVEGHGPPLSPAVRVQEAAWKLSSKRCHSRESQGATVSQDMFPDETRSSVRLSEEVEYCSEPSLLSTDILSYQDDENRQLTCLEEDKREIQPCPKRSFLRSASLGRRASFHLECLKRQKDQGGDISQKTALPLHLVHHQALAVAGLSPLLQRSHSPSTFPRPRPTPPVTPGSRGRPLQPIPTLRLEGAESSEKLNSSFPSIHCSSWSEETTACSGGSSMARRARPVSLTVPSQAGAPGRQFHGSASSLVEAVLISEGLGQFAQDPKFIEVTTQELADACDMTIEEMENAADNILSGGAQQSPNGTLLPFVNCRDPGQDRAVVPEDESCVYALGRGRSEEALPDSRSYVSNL
The test is described as follows: Calcium antagonism in vascular smooth muscle (isolated thoracic aorta segments from male spontaneously hypertensive rats). It is filed as cell-based. The following applies: for activity as vascular calcium antagonist (in words): isolated SHR aorta; for Kb: read-out: pA2 (Ca++ Antagonism) (converted). The procedure:
Isolated thoracic aorta segments from the male spontaneously hypertensive rat were utilized in this test procedure.
The excised aorta segment was mounted in a tissue bath containing modified Krebs solution. After depolarization of the tissue with potassium (100 mM), calcium, in cumulative concentrations of 1×10^-3 M, 3.2×10^-3 M, and 1×10^-2 M was injected into the bath to produce vascular smooth muscle contraction. The developed tension (in grams) is measured and control dose-response values obtained. After one hour of incubation with a test compound at 1×10^-6 M concentration, the same doses of calcium ions were repeated. The log dose-response curves of the control and after treatment were analyzed by linear regression. The pA2 value was calculated as a measure of calcium antagonism of the test compound. See Van Rossum, J. M., Arch. Int. Pharmacodyn, 143, 299-330, 1963.
Calcium ions play an essential role in induction and maintenance of vascular smooth muscle contractility. In potassium depolarized vascular smooth muscle, calcium antagonists may block the entry of calcium ions into the cell or act by other mechanisms to inhibit the contractions induced by calcium ions. The inhibition of calcium ion - induced contraction of vascular smooth muscle is used to test compounds for vascular calcium antagonism. Cardiovascular diseases such as arrythmias, angina-pectoris, hypertension, and peripheral vascular disease may be casually related to abnormalities in cellular handling of calcium ions.

Setting [3] is: 1×10^-6 M, one hour incubation, K+ (100 mM) depolarized SHR aorta.

Molecules are shown by their SMILES. Counter-ions that a name gives are not always drawn.

For the compound `C[C@](N)(Cc1ccc(O)c(O)c1)C(=O)O` [Aldomet, reference compound], the “activity in the hypertensive rat assay (in words)” value in test [1] (SHR) was “active”.

Take `NNc1nncc2ccccc12` [Apresoline, reference compound]: the “activity in the hypertensive rat assay (in words)” value in test [1] (rat, in vivo) is reported as “active”.

Take `C[C@H](CS)C(=O)N1CCC[C@H]1C(=O)O` [Captopril, reference compound]: the “activity in the hypertensive rat assay (in words)” value in test [1] (SHR) is “active”.

With `Clc1cccc(Cl)c1N=C1NCCN1` [Clonidine, reference compound], the “activity in the hypertensive rat assay (in words)” value in test [1] (rat, in vivo) is “active”.

On to `COc1ccc([C@@H]2Sc3ccccc3N(CCN(C)C)C(=O)[C@@H]2OC(C)=O)cc1` [Diltiazem, reference compound], for which the “activity as vascular calcium antagonist (in words)” value in test [2] is recorded as “active”.

As to `CCOC(=O)c1cc(OCc2ccccc2)ccc1CN1CCC(C(c2ccccc2)c2ccccc2)CC1` [Example 2, ethyl 2-[[4-(diphenylmethyl)-1-piperidinyl]methyl]-5-(phenylmethoxy)benzoate], the “pA2 (Ca++ Antagonism)” value in test [2] (setting [3]) is “inactive”. Besides, the “SHR mm Hg @ 10 mg/kg intravenous (blood pressure lowering)” value in test [1] (SHR) is “inactive”.

With `COc1ccc(CN2CCC(C(c3ccccc3)c3ccccc3)CC2)cc1OCc1ccccc1` [Example 3, 4-(diphenylmethyl)-1-[[[4-methoxy-3-(phenylmethoxy)phenyl]methyl]piperidine, ethanedioate], the Kb in test [2] (setting [3]) was 25.7 nM. Further, in test [1] (SHR), the “SHR mm Hg @ 10 mg/kg intravenous (blood pressure lowering)” value is reported as 79 mm Hg and the minimal effective dose turned out to be 0.3 mg/kg.

With `CC(C)(C)NC(=O)c1cc(OCc2ccccc2)ccc1CN1CCC(C(c2ccccc2)c2ccccc2)CC1` [Example 4, 2-[[4-(diphenylmethyl)-1-piperidinyl]methyl]-5-(phenylmethoxy)-N-(1,1-dimethylethyl) benzamide], the Kb in test [2] (setting [3]) was 186 nM. Further, in test [1] (SHR), the “SHR mm Hg @ 10 mg/kg intravenous (blood pressure lowering)” value came to 29 mm Hg and the minimal effective dose turned out to be 0.3 mg/kg.

Regarding `Oc1ccc(CN2CCC(C(c3ccccc3)c3ccccc3)CC2)cc1` [Example 5, 4-[[4-(diphenylmethyl)-1-piperidinyl]methyl]phenol], the “Oral Activity (Blood Pressure Lowering)” value in test [1] (SHR) was “inactive”.

On to `c1ccc(COc2ccc(CN3CCC(C(c4ccccc4)c4ccccc4)CC3)cc2)cc1` [Example 6, 4-(diphenylmethyl)-1-[[4-(phenylmethoxy)phenyl]methyl] piperidine, hydrochloride], for which the Kb in test [2] (setting [3]) was 10.7 nM. For the same compound, in test [1] (SHR), the “SHR mm Hg @ 10 mg/kg intravenous (blood pressure lowering)” value turned out to be 88 mm Hg and the minimal effective dose was determined as 0.3 mg/kg.

Regarding `Cc1ccc(COc2ccc(CN3CCC(C(c4ccccc4)c4ccccc4)CC3)cc2)cc1` [Example 7, 4-(diphenylmethyl)-1-[[4-[(4-methylphenyl)methoxy]phenyl]methyl] piperidine, 2-butendioate], in test [1] (SHR), the “SHR mm Hg @ 10 mg/kg intravenous (blood pressure lowering)” value is listed as 56 mm Hg and the minimal effective dose came out at 1 mg/kg.

Consider `COc1ccc(COc2ccc(CN3CCC(C(c4ccc(F)cc4)c4ccc(F)cc4)CC3)cc2)cc1` [Example 8], for which, in test [2] (setting [3]), the Kb was 18.2 nM. In test [1] (SHR), the “SHR mm Hg @ 10 mg/kg intravenous (blood pressure lowering)” value is given as 50 mm Hg and the minimal effective dose stood at 1 mg/kg.

In the case of `COc1ccc(COc2ccc(CN3CCC(C(c4ccccc4)c4ccccc4)CC3)cc2)cc1` [Example 9, 4-(diphenylmethyl)-1-[[4-[(4-methoxyphenyl)methoxy]phenyl]methyl]piperidine], the Kb in test [2] (setting [3]) is 41.7 nM.

Regarding `Fc1ccc(C(c2ccc(F)cc2)C2CCN(Cc3ccc(OCc4ccccc4)cc3)CC2)cc1` [Example 10, [bis(4-fluorophenyl)methyl]-1-[[4-(phenylmethoxy)phenyl]methyl]piperidine], the Kb in test [2] (setting [3]) is 26.9 nM. In test [1] (SHR), the “SHR mm Hg @ 10 mg/kg intravenous (blood pressure lowering)” value is given as 67 mm Hg and the minimal effective dose is 0.3 mg/kg.

As for `Fc1ccc(C(c2ccc(F)cc2)C2CCN(Cc3ccc(OCc4ccc(Cl)cc4)cc3)CC2)cc1` [Example 11, 4-[bis(4-fluorophenyl)methyl]-1-[[4-[(4-chlorophenyl)methoxy]phenyl]methyl]piperidine, hydrobromide], in test [2] (setting [3]), the Kb was 8.71 nM. Besides, in test [1] (SHR), the “SHR mm Hg @ 10 mg/kg intravenous (blood pressure lowering)” value was 107 mm Hg and the minimal effective dose was determined as 0.3 mg/kg.

In the case of `Fc1ccc(C(c2ccc(F)cc2)C2CCN(Cc3ccc(OCc4ccc(Cl)cc4Cl)cc3)CC2)cc1` [Example 12, 4-[bis(4-fluorophenyl)methyl]-1-[[4-[(2,4-dichlorophenyl)methoxy]phenyl]methyl] piperidine, hydrochloride], the Kb in test [2] (setting [3]) is 30.2 nM. Moreover, in test [1] (SHR), the “SHR mm Hg @ 10 mg/kg intravenous (blood pressure lowering)” value was 79 mm Hg and the minimal effective dose came out at 0.1 mg/kg.

On to `Fc1cccc(C(c2cccc(F)c2)C2CCN(Cc3ccc(OCc4ccccc4)cc3)CC2)c1` [Example 13], for which, in test [2] (setting [3]), the Kb was 12.9 nM. In test [1] (SHR), the “SHR mm Hg @ 10 mg/kg intravenous (blood pressure lowering)” value was “inactive” and the “Threshold Dose mg/kg intravenous” value is “inactive”.

Take `Clc1ccc(COc2ccc(CN3CCC(C(c4ccccc4)c4ccccc4)CC3)cc2)cc1` [Example 14, 1-[[4-[(4-chlorophenyl)methoxy]phenyl]methyl]-4-(diphenylmethyl)piperidine]: the Kb in test [2] (setting [3]) was 38.9 nM. The “Oral Activity (Blood Pressure Lowering)” value in test [1] (SHR) is on record as “active”.

For `Clc1ccc(COc2ccc(CN3CCC(C(c4ccccc4)c4ccccc4)CC3)cc2)cc1` [Example 15, 1-[[4-[(4-chlorophenyl)methoxy]phenyl]methyl]-4-(diphenylmethyl)piperidine, 2-butenedioate], in test [1] (SHR), the “SHR mm Hg @ 10 mg/kg intravenous (blood pressure lowering)” value was 89 mm Hg and the minimal effective dose worked out at 1 mg/kg.

Take `Clc1ccc(COc2ccc(CN3CCC(C(c4ccccc4)c4ccccc4)CC3)cc2)cc1Cl` [Example 16, 1-[[4-[(3,4-dichlorophenyl)methoxy]phenyl]methyl]-4-(diphenylmethyl)piperidine, 2-butenedioate]: in test [1] (SHR), the “SHR mm Hg @ 10 mg/kg intravenous (blood pressure lowering)” value turned out to be 81 mm Hg and the minimal effective dose came out at 0.3 mg/kg.

Consider `Clc1ccc(COc2ccc(CN3CCC(C(c4ccccc4)c4ccccc4)CC3)cc2)c(Cl)c1` [Example 17, 1-[[4-[(2,4-dichlorophenyl)methoxy]phenyl]methyl]-4-(diphenylmethyl)piperidine], for which the Kb in test [2] (setting [3]) was 40.7 nM. Further, in test [1] (SHR), the “SHR mm Hg @ 10 mg/kg intravenous (blood pressure lowering)” value is “inactive” and the “Threshold Dose mg/kg intravenous” value is “inactive”.

Regarding `Fc1ccccc1COc1ccc(CN2CCC(C(c3ccccc3)c3ccccc3)CC2)cc1` [Example 18, 4-(diphenylmethyl)-1-[[4-[(2-fluorophenyl)methoxy]phenyl]methyl]piperidine], the Kb in test [2] (setting [3]) was 70.8 nM. In test [1] (SHR), the “SHR mm Hg @ 10 mg/kg intravenous (blood pressure lowering)” value amounted to 65 mm Hg, the minimal effective dose turned out to be 0.3 mg/kg and the “Oral Activity (Blood Pressure Lowering)” value was “active”.

With `COc1ccc(CN2CCC(C(c3ccccc3)c3ccccc3)CC2)cc1OCc1ccc(Cl)cc1` [Example 19], the Kb in test [2] (setting [3]) is 457 nM. In test [1] (SHR), the “SHR mm Hg @ 10 mg/kg intravenous (blood pressure lowering)” value is on record as 75 mm Hg and the minimal effective dose came to 1 mg/kg.

Take `c1ccc(C(c2ccccc2)C2CCN(Cc3ccc(OCC4CCCCC4)cc3)CC2)cc1` [Example 20]: in test [2] (setting [3]), the Kb was 44.7 nM. Also, the “SHR mm Hg @ 10 mg/kg intravenous (blood pressure lowering)” value in test [1] (SHR) was “inactive”.

With `COc1cc(CN2CCC(C(c3ccccc3)c3ccccc3)CC2)ccc1OCc1ccccc1` [Example 21], in test [1] (SHR), the “SHR mm Hg @ 10 mg/kg intravenous (blood pressure lowering)” value was 18 mm Hg, the minimal effective dose was 0.1 mg/kg and the “Oral Activity (Blood Pressure Lowering)” value is given as “active”.

For `COC(=O)C1=C(C)NC(C)=C(C(=O)OC)C1c1ccccc1[N+](=O)[O-]` [Nifedipine, reference compound], the “activity as vascular calcium antagonist (in words)” value in test [2] is given as “active”.

Regarding `COc1ccc(CCN(C)CCCC(C#N)(c2ccc(OC)c(OC)c2)C(C)C)cc1OC` (stereo not shown) [Verapamil, reference compound], the “activity as vascular calcium antagonist (in words)” value in test [2] was “active”.
